Measured values taken from patent US9695102B2, “Alkali metal cinnamate powder and method for preparation” (Purac Biochem BV, priority 2009, dated 2017).

How the values were obtained:
Type in all cases: physicochemical
[1] = Average moisture content of resulting powder; conditions: resulting powder after drying
[2] = Particle size distribution, Malvern Mastersizer 2000 laser diffraction; design: D (0.1) / D (0.5) / D (0.9) / D [3.2] / D [4.3]: unit not given here
Source text: Particle size distribution has been measured with a Malvern Mastersizer 2000® particle size analyzer Measurement. Measuring principle is based on laser diffraction.

[3] = Hausner ratio from tapped and aerated bulk density, Micron Powder Characteristics Tester; conditions: for Hausner Ratio: from tapped and aerated bulk density, flowability; for Tapped Bulk Density: tapped powder; for Aerated Bulk Density: untapped powder
Experimental: (§1) These are all standard measurements described in various text and hand books on powders and their properties. The various measurements were done using a Micron Powder Characteristics Tester™ (Model PT-N) from Hosokawa Micron International Inc.
(§2) The Hausner ratio is determined by measurement of the tapped and untapped (or aerated) bulk density. The angle of repose is determined by measurement of the angle of a cone of powder that is formed by pouring the powder through a glass funnel.

[4] = Angle of spatula, Micron Powder Characteristics Tester
Experimental: as §1
The angle of spatula is determined by measurement the difference in the angle of powder—that stays behind on a spatula when a container with said spatula on the bottom and filled with said powder is lowered and the spatula stays on the same height—and the angle of the powder on said spatula after the spatula was tapped by a weight.

[5] = Angle of repose, Micron Powder Characteristics Tester
Experimental: as §1, §2

SMILES	average moisture content [1]	D (0.1) [2]	D (0.5) [2]	D (0.9) [2]	D [3.2] [2]	D [4.3] [2]	Span (—) [2]	Hausner Ratio [3]	Hausner Ratio ([3]; listed as Commercially available potassium cinnamate)	Tapped Bulk Density [3]	Aerated Bulk Density [3]	Carr class ([3]; Carr flowability scale based on compaction)	Angle of spatula [index] ([4]; flowability index word)	Angle of spatula ([4]; powder on spatula before and after tapping)	Angle of repose ([5]; cone of powder poured through glass funnel)	Angle of repose [index] ([5]; flowability index word)
O=C([O-])C=Cc1ccccc1.[K+] [Experiment 1, potassium cinnamate]	less than 2 wt %	–	–	–	–	–	–	–	–	–	–	–	–	–	–	–
O=C([O-])C=Cc1ccccc1.[K+] [Experiment 2, potassium cinnamate]	about 0.5 wt %	–	–	–	–	–	–	–	–	–	–	–	–	–	–	–
O=C([O-])C=Cc1ccccc1.[K+] [Potassium cinnamate commercially available]	–	44	240	601	89	286	2.32	1.66	about 1.66	527 kg m^−3	318 kg m^−3	–	–	–	–	–
O=C([O-])C=Cc1ccccc1.[K+] [Potassium cinnamate of the present disclosure]	–	114	192	320	178	206	1.07	1.15	–	945 kg m^−3	823 kg m^−3	Good	normal	48	35.6	good
